Reference: ChEMBL document CHEMBL1201862, “PubChem BioAssay data set” (2004)
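All cell lines were grown in 96-well plates and treated with compound for 48 hours. GI50: concentration for 50% inhibition of growth.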 The source made the active and inactive calls. No stated cut-off is given here; in the data, active = GI50 up to about 1.1 µM and inactive = higher.

Columns and labels:
Assay in all cases: NCI tumour cell line growth inhibition, 48 h
OVCAR-3 = test system: OVCAR-3
ACHN = test system: ACHN
UACC-257 = test system: UACC-257
U-251 = test system: U-251
HOP-62 = test system: HOP-62
EKVX = test system: EKVX
SW-620 = test system: SW-620
OVCAR-5 = test system: OVCAR-5
UACC-62 = test system: UACC-62
CAKI-1 = test system: CAKI-1
HL-60 = test system: HL-60
A498 = test system: A498
MDA-MB-435 = test system: MDA-MB-435
786-0 = test system: 786-0
SK-MEL-28 = test system: SK-MEL-28
MDA-N = test system: MDA-N
K562 = test system: K562
M14 = test system: M14
SK-MEL-5 = test system: SK-MEL-5
SF-268 = test system: SF-268
SR = test system: SR
SK-MEL-2 = test system: SK-MEL-2
Malme-3M = test system: Malme-3M
KM12 = test system: KM12
NCI-H460 = test system: NCI-H460
NCI-H522 = test system: NCI-H522
MCF7 = test system: MCF7
Hs-578T = test system: Hs-578T
A549 = test system: A549
HCT-116 = test system: HCT-116
SN12C = test system: SN12C
UO-31 = test system: UO-31
LOX IMVI = test system: LOX IMVI
BT-549 = test system: BT-549
NCI-H23 = test system: NCI-H23
NCI-H226 = test system: NCI-H226
TK-10 = test system: TK-10
SK-OV-3 = test system: SK-OV-3
IGROV-1 = test system: IGROV-1
HCC 2998 = test system: HCC 2998
MOLT-4 = test system: MOLT-4
MDA-MB-231 = test system: MDA-MB-231
RXF 393 = test system: RXF 393
NCI/ADR-RES = test system: NCI/ADR-RES
OVCAR-4 = test system: OVCAR-4
SF-539 = test system: SF-539
SNB-75 = test system: SNB-75
RPMI-8226 = test system: RPMI-8226
SNB-19 = test system: SNB-19
DU-145 = test system: DU-145
SF-295 = test system: SF-295
CCRF-CEM = test system: CCRF-CEM
OVCAR-8 = test system: OVCAR-8
HCT-15 = test system: HCT-15
T47D = test system: T47D
PC-3 = test system: PC-3
COLO 205 = test system: COLO 205
HOP-92 = test system: HOP-92
HT-29 = test system: HT-29

For CCn1c(SCC(=O)NNC(=S)Nc2ccc(Cl)cc2)nc2ccccc2c1=O, the GI50 (OVCAR-3) was 82 µM (inactive), the GI50 (ACHN) was 47.9 µM (inactive) and the GI50 (UACC-257) was 53.2 µM (inactive). The GI50 (U-251) was 46.9 µM (inactive), the GI50 (HOP-62) was 79.1 µM (inactive) and the GI50 (EKVX) was > 100 µM (inactive). The GI50 (SW-620) was 95.1 µM (inactive), the GI50 (OVCAR-5) was > 100 µM (inactive) and the GI50 (UACC-62) was 35.2 µM (inactive). The GI50 (CAKI-1) was 43.9 µM (inactive), the GI50 (HL-60) was 29.9 µM (inactive) and the GI50 (A498) was 46.9 µM (inactive). The GI50 (MDA-MB-435) was 42.1 µM (inactive), the GI50 (786-0) was 45.1 µM (inactive) and the GI50 (SK-MEL-28) was 56.6 µM (inactive). For the same molecule, the GI50 (MDA-N) was 55.3 µM (inactive), the GI50 (K562) was 30.3 µM (inactive) and the GI50 (M14) was > 100 µM (inactive). For the same molecule, the GI50 (SK-MEL-5) was > 100 µM (inactive), the GI50 (SF-268) was 87.1 µM (inactive) and the GI50 (SR) was 43.9 µM (inactive). The GI50 (SK-MEL-2) was 74.8 µM (inactive), the GI50 (Malme-3M) was 42.2 µM (inactive) and the GI50 (KM12) was 83 µM (inactive). For the same molecule, the GI50 (NCI-H460) was 49.8 µM (inactive), the GI50 (NCI-H522) was 59 µM (inactive) and the GI50 (MCF7) was 56.2 µM (inactive). The GI50 (Hs-578T) was > 100 µM (inactive), the GI50 (A549) was 40.6 µM (inactive) and the GI50 (HCT-116) was 39.8 µM (inactive). The GI50 (SN12C) was 47.5 µM (inactive), the GI50 (UO-31) was 32 µM (inactive) and the GI50 (LOX IMVI) was 30.1 µM (inactive). For the same molecule, the GI50 (BT-549) was 31.8 µM (inactive), the GI50 (NCI-H23) was 45.3 µM (inactive) and the GI50 (NCI-H226) was > 100 µM (inactive). The GI50 (TK-10) was 37.3 µM (inactive), the GI50 (SK-OV-3) was 53.8 µM (inactive) and the GI50 (IGROV-1) was > 100 µM (inactive). The GI50 (HCC 2998) was 49 µM (inactive), the GI50 (MOLT-4) was 30.8 µM (inactive) and the GI50 (MDA-MB-231) was > 100 µM (inactive). For the same molecule, the GI50 (RXF 393) was 26.2 µM (inactive), the GI50 (NCI/ADR-RES) was 47.1 µM (inactive) and the GI50 (OVCAR-4) was 40 µM (inactive). For the same molecule, the GI50 (SF-539) was 58.1 µM (inactive), the GI50 (SNB-75) was > 100 µM (inactive) and the GI50 (RPMI-8226) was 24.5 µM (inactive). The GI50 (SNB-19) was > 100 µM (inactive), the GI50 (DU-145) was 55.6 µM (inactive) and the GI50 (SF-295) was 41.9 µM (inactive). For the same molecule, the GI50 (CCRF-CEM) was 33.1 µM (inactive), the GI50 (OVCAR-8) was 43 µM (inactive) and the GI50 (HCT-15) was 38.5 µM. The GI50 (T47D) was 35.8 µM (inactive), the GI50 (PC-3) was 27.2 µM (inactive) and the GI50 (COLO 205) was 70 µM (inactive).

With CC(=O)O[C@H]1CC[C@@H](OC(C)=O)[C@H]2[C@H](O)[C@H](O)[C@@H]1n1c(=O)n(-c3ccccc3)c(=O)n12 the GI50 (OVCAR-3) was > 100 µM (inactive), the GI50 (ACHN) was > 100 µM (inactive) and the GI50 (UACC-257) was > 100 µM (inactive). For the same molecule, the GI50 (HOP-92) was > 100 µM (inactive), the GI50 (U-251) was > 100 µM (inactive) and the GI50 (HOP-62) was > 100 µM (inactive). The GI50 (EKVX) was > 100 µM (inactive), the GI50 (SW-620) was > 100 µM (inactive) and the GI50 (OVCAR-5) was > 100 µM (inactive). The GI50 (UACC-62) was > 100 µM (inactive), the GI50 (CAKI-1) was > 100 µM (inactive) and the GI50 (HT-29) was > 100 µM (inactive). For the same molecule, the GI50 (HL-60) was > 100 µM (inactive), the GI50 (A498) was > 100 µM (inactive) and the GI50 (MDA-MB-435) was > 100 µM (inactive). For the same molecule, the GI50 (786-0) was > 100 µM (inactive), the GI50 (SK-MEL-28) was > 100 µM (inactive) and the GI50 (MDA-N) was > 100 µM (inactive). For the same molecule, the GI50 (K562) was > 100 µM (inactive), the GI50 (M14) was > 100 µM (inactive) and the GI50 (SK-MEL-5) was > 100 µM (inactive). For the same molecule, the GI50 (SF-268) was > 100 µM (inactive), the GI50 (SK-MEL-2) was > 100 µM (inactive) and the GI50 (Malme-3M) was > 100 µM (inactive). For the same molecule, the GI50 (KM12) was > 100 µM (inactive), the GI50 (NCI-H522) was > 100 µM (inactive) and the GI50 (MCF7) was > 100 µM (inactive). For the same molecule, the GI50 (Hs-578T) was > 100 µM (inactive), the GI50 (A549) was > 100 µM (inactive) and the GI50 (HCT-116) was > 100 µM (inactive). For the same molecule, the GI50 (SN12C) was > 100 µM (inactive), the GI50 (UO-31) was > 100 µM (inactive) and the GI50 (LOX IMVI) was > 100 µM (inactive). The GI50 (BT-549) was > 100 µM (inactive), the GI50 (NCI-H23) was > 100 µM (inactive) and the GI50 (NCI-H226) was > 100 µM (inactive). The GI50 (TK-10) was > 100 µM (inactive), the GI50 (IGROV-1) was > 100 µM (inactive) and the GI50 (MOLT-4) was > 100 µM (inactive). For the same molecule, the GI50 (MDA-MB-231) was > 100 µM (inactive), the GI50 (RXF 393) was > 100 µM (inactive) and the GI50 (NCI/ADR-RES) was > 100 µM (inactive). For the same molecule, the GI50 (OVCAR-4) was > 100 µM (inactive), the GI50 (SF-539) was > 100 µM (inactive) and the GI50 (RPMI-8226) was > 100 µM (inactive). The GI50 (SNB-19) was > 100 µM (inactive), the GI50 (DU-145) was > 100 µM (inactive) and the GI50 (SF-295) was > 100 µM (inactive). The GI50 (CCRF-CEM) was > 100 µM (inactive), the GI50 (OVCAR-8) was > 100 µM (inactive) and the GI50 (HCT-15) was greater than 100 µM. For the same molecule, the GI50 (T47D) was > 100 µM (inactive), the GI50 (PC-3) was > 100 µM (inactive) and the GI50 (COLO 205) was > 100 µM (inactive).
